# Laboratory results taken from ChEMBL document CHEMBL3988181, “GlaxoSmithKline Published Kinase Inhibitor Set 2 Onchocerca lienalis Screening Data”.
# “And” between values parts separate entries of the source, which are not always exact repeats. Equal values may be shown once.
# Assay: GSK PKIS2: Screen against O. lienalis microfilariae, single point, at 3.1uM to assess reduction in motility. Compounds were also tested for cytotoxicity against Rhesus Monkey LLCMK2 cells.
# Format: functional, Onchocerca lienalis, LLC-MK2
# Details: CELL_LINE LLCMK2; CELL_SUPPLIER ECACC; CONC 3.1 uM; ORGANISM_SUPPLIER Extracted from peri-umbilical skin obtained from naturally infected cattle in the UK; temperature 37 degree C
row,Compound,MOTILITY REDUCTION/CYTOTOXICITY
1,Nc1ncnc2c1ncn2-c1ccc(Cl)cc1,60%
2,Nc1n[nH]c2nnc(-c3ccccc3)c(-c3ccccc3)c12,0%
3,CCn1c(-c2nonc2N)nc2ccccc21 [GW549034X],0%
4,CC(C)(C)c1ccc2nccc(Nc3cccc(O)c3)c2c1,100%
5,COc1nccc(-c2c(-c3ccc(F)cc3)ncn2CCCN2CCOCC2)n1,0%
6,Cc1ccc(NC(=O)Nc2ccccc2F)cc1-c1ccc(C(=O)Nc2ccncc2)cc1,53.4%
7,COc1cc2c(Nc3cccc(NC(=O)c4ccccc4)c3)ncnc2cc1OCCCN1CCOCC1,0%
8,CCCCc1nn2ncccc2c1-c1ccnc(Nc2ccc(N3CCN(C)CC3)cc2)n1,13.4%
9,OCCCNc1nccc(-c2c(-c3cccc(C(F)(F)F)c3)nn3cc(C(F)(F)F)ccc23)n1,0%
10,Cn1cncc1-c1ccc2ncnc(Nc3ccc(OCc4ccccc4)cc3)c2c1,0%
11,O=C(NCC1CC1)c1ccc(-c2cc(C(=O)NC3CC3)ccc2F)cc1,0%
12,CNc1ncnc2[nH]ncc12,0%
13,Cc1cc(N2Cc3ccccc3C2)nc(Nc2ccc(S(=O)(=O)N3CCOCC3)cc2)n1,0%
14,Cc1ccc(NC(=O)Nc2ccc(Cl)c(C(F)(F)F)c2)cc1-c1ccc(C(=O)Nc2ccncc2)cc1,40%
15,Cc1ccc(NC(=O)Nc2cccc(Cl)c2)cc1-c1ccc(C(=O)Nc2ccncc2)cc1,33.4%
16,NCC(NCc1ccc(-c2ccnc3[nH]ccc23)s1)c1ccccc1 (stereo unspecified),0%
17,FC(F)(F)c1cc(Br)cc(Nc2nccc(-c3cnn4ncccc34)n2)c1,46.7%
18,CC(C)NCC(Cc1ccccc1)NC(=O)c1cc(Br)c(-c2ccnc3[nH]ccc23)s1 (stereo unspecified),66.7%
19,Nc1ncc(-c2cccnc2)c2scc(-c3ccc4c(c3)CCN4C(=O)Cc3ccccc3)c12,0%
20,COc1cccc(-c2ccc3c(NC(=O)C4CC4)n[nH]c3n2)c1,20%
21,Cc1csc(-c2nc(Nc3ccncc3)c3ccccc3n2)n1,33.4%
22,O=C(Nc1n[nH]c2nc(-c3ccccc3O)ccc12)C1CC1,0%
23,COc1cccc(-c2cc(-c3c[nH]nc3-c3ccccn3)ccn2)c1,0%
24,Fc1ccc(Nc2nccc(-c3c(-c4ccc(Cl)cc4)nn4ncccc34)n2)cc1F,0%
25,Cc1ccc(NC(=O)c2ccnc(N3CCN(C)CC3)c2)cc1-c1ccc(C(=O)NCC2CC2)cc1,0%
26,COc1ccc(Nc2nccc(N3CCC(NC(=O)c4cccc(C#N)c4)C3)n2)cc1 (stereo unspecified),0%
27,O=C(Nc1[nH]nc2cc(-c3ccccc3F)ccc12)C1CC1,0%

row,Compound,MOTILITY REDUCTION/CYTOTOXICITY
1,CCn1c(-c2nonc2N)nc2c(C#CC(C)(C)O)nc(OCCN)cc21,0%
2,CNc1cc(-c2ccc3c(N)n[nH]c3c2)nc(N)n1,0%
3,Cn1cc(-c2ccc3c(c2)CCN3C(=O)Cc2cc(F)cc(C(F)(F)F)c2)c2c(N)ncnc21,0%
4,Cc1c(Cn2ccn3c(=O)cc(N4CCOCC4)nc23)cccc1C(F)(F)F,0%
5,O=C(Nc1n[nH]c2nc(-c3ccco3)c(Br)cc12)c1ccc(CN2CCCC2)cc1,0%
6,CCCC(=O)Nc1n[nH]c2ncc(-c3cccc4ccccc34)cc12,0%
7,Cc1ccc(NC(=O)c2ccnc(N3CCCCC3)c2)cc1-c1ccc(C(=O)NCC2CC2)cc1,0%
8,O=C1NC(=O)C(c2ccc(Cl)cc2)=C1Nc1cccc(C(=O)O)c1,0%
9,COC(=O)Nc1nc2ccc(Oc3ccc(CC(=O)Nc4cc(C(F)(F)F)ccc4F)cc3)cc2[nH]1,33.4%
10,O=C(Nc1cccc(-c2nn3ccccc3c2-c2ccnc(Nc3cccc(F)c3)n2)c1)c1c(F)ccc(F)c1Cl,0%
11,O=C(Nc1n[nH]c2nc(-c3ccccc3)c(Cl)cc12)C1CC1,0%
12,Cn1cc(-c2ccc3c(c2)CCN3C(=O)Cc2ccccc2Cl)c2c(N)ncnc21,16.7%
13,Nc1nc(N)c2[nH]c(-c3ccccc3)nc2n1,20%
14,Nc1cccc(-c2ccc3c(N)n[nH]c3c2)c1,33.4%
15,O=C(Nc1n[nH]c2cc(-c3ccsc3)ccc12)C1CC1,0%
16,CN(C)c1cc(-c2ccc3c(N)n[nH]c3c2)nc(N)n1,0%
17,C[C@@H](Oc1cc(-n2cnc3cc(-c4ccncc4)ccc32)sc1C(N)=O)c1ccccc1Cl,0%
18,COc1ccc(-c2nc3n(c2-c2ccncc2)CCC3)cc1,0%
19,Cc1cccc(-c2nc(Nc3ccc4c(cnn4C)c3)c3ccccc3n2)n1,100%
20,C[C@@H]1CCCCN1c1cc(-c2ccc3c(N)n[nH]c3c2)nc(N)n1,13.4%
21,Nc1nc(-c2ccc3c(N)n[nH]c3c2)cc(N2CCCCC2)n1,0%
22,O=C(NCCNc1ccnc(NCc2ccc(F)cc2)n1)c1cc2ccccc2s1,0%
23,CC1=C(C(=O)Nc2cc3cn[nH]c3cc2F)C(c2ccc(C(F)(F)F)cc2)CC(=O)N1 (stereo unspecified),0%
24,COc1cc2nccc(Nc3cccc(Oc4ccccc4)c3)c2cc1OC,0%
25,CC(C(=O)NC1CCN(c2ccnc(Nc3ccc(F)cc3)n2)C1)c1ccc(Cl)cc1 (stereo unspecified),33.4%
26,c1ccc(-c2n[nH]cc2Nc2ccnc3ccccc23)nc1,100%
27,O=c1cc(N2CCOCC2)nc2n(Cc3cccc(Cl)c3)ccn12,0%

row,Compound,MOTILITY REDUCTION/CYTOTOXICITY
1,Cn1cc(-c2ccc3c(c2)CCN3C(=O)Cc2cccc(F)c2)c2c(N)ncnc21,33.4%
2,COc1cccc2c(-c3ccncc3)c(-c3ccc(F)cc3)nn12,66.7%
3,Cc1ccc(Nc2ccnc(Nc3ccc4c(c3)CS(=O)(=O)C4)n2)cc1O,80%
4,Cc1cccc(Cn2ccn3c(=O)cc(N4CCOCC4)nc23)c1,0%
5,COc1cccc(C2=C(Nc3cccc(Cl)c3)C(=O)NC2=O)c1,0%
6,Nc1ncnc2scc(-c3ccc(NC(=O)Cc4cc(F)ccc4F)cc3)c12.O=C(O)C(F)(F)F,40%
7,Cc1nn2c(=O)cc(N3CCOCC3)nc2n1Cc1cccc(Cl)c1Cl,0%
8,C[C@@H](Oc1cc(-n2cnc3ccc(-c4ccncc4)cc32)sc1C(N)=O)c1ccccc1Cl,0%
9,COc1cc(Nc2nccc(N3CCC(NC(=O)Nc4cc(C)ccc4C)C3)n2)cc(OC)c1OC (stereo unspecified),0%
10,O=C1NC(=O)C(c2ccc(Cl)cc2)=C1Nc1ccc(O)cc1,0%
11,COc1cc(Nc2ccnc3cc(-c4ccncc4)ccc23)cc(OC)c1OC,33.4%
12,Fc1cc(Cl)ccc1Nc1ccnc2cc(I)ccc12,33.4%
13,COc1ccc(Nc2nccc(N3CCC(NC(=O)c4cccc(NC(C)=O)c4)C3)n2)cc1 (stereo unspecified),0%
14,CC(=O)c1cccc(NC(=O)NC2CCN(c3ccnc(Nc4ccc(F)cc4)n3)C2)c1 (stereo unspecified),0%
15,CS(=O)(=O)c1ccccc1-c1nc(-c2ccc(F)cc2)c(-c2ccncc2)[nH]1,33.4%
16,NC(=O)Nc1sc(-c2ccc(F)cc2)cc1C(N)=O,33.4%
17,CS(=O)(=O)Nc1ccc(-c2ccnc3[nH]ccc23)cc1,0%
18,COc1ccc(NC(=O)Nc2ccc(C)c(-c3ccc(C(=O)Nc4ccncc4)cc3)c2)cc1,80%
19,COc1cccc(NC(=O)NC2CCN(c3ccnc(Nc4cc(OC)c(OC)c(OC)c4)n3)C2)c1 (stereo unspecified),86.7%
20,NC(=O)c1cccc(Nc2nccc(Nc3ccc(Oc4c(Cl)cccc4Cl)c(Cl)c3)n2)c1,0%
21,CN(C1=C(c2ccccc2)C(=O)NC1=O)c1ccccc1,0%
22,O=c1[nH]ccc2nc(N[C@@H]3CCCNC3)nc(Nc3ccc(S(=O)(=O)N4CCOCC4)cc3)c12,46.7%
23,NC[C@H](CC1CCCCC1)NC(=O)c1cc(Br)c(-c2ccnc3[nH]ccc23)s1,0%
24,N#CCc1ccc(Nc2nccc(Nc3ccc(Oc4ccccc4)cc3)n2)cc1,20%
25,COc1ccc(Nc2nccc(-c3cccc(NC(=O)c4cc5cc(F)ccc5[nH]4)c3)n2)cc1,53.4%
26,c1ccc(-c2cnc3nccnn23)cc1,0%

# Same assay, conditions: CELL_LINE LLCMK2; CELL_SUPPLIER ECACC; CONC 3.1 uM; ORGANISM_SUPPLIER Extracted from peri-umbilical skin obtained from naturally infected cattle in the UK; temperature 37 degree C; 3.1 µM
row,Compound,MOTILITY REDUCTION/CYTOTOXICITY
1,CSc1nn2c(=O)cc(N3CCOCC3)nc2n1Cc1cccc(C(F)(F)F)c1C,16.7% and 0%
